In PubChem BioAssay (NCI):
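Tested at 5 concentrations; 48 h exposure; 96-well plates; endpoints linearly interpolated, else capped at highest concentration. GI50 marks 50% less growth. TGI: total growth inhibition.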

Legend:
Test in all cases: NCI anticancer screen, dose series, 48 h
CAKI-1 renal = system: CAKI-1 renal
SW-620 colon = system: SW-620 colon
SK-OV-3 ovarian = system: SK-OV-3 ovarian
OVCAR-5 ovarian = system: OVCAR-5 ovarian
MDA-MB-435 = system: MDA-MB-435
HCT-15 colon = system: HCT-15 colon
UO-31 renal = system: UO-31 renal
HCT-116 colon = system: HCT-116 colon
SNB-75 CNS = system: SNB-75 CNS
MALME-3M melanoma = system: MALME-3M melanoma

SMILES	GI50 (CAKI-1 renal)	TGI (CAKI-1 renal)	GI50 (SW-620 colon)	TGI (SW-620 colon)	GI50 (SK-OV-3 ovarian)	TGI (SK-OV-3 ovarian)	GI50 (OVCAR-5 ovarian)	TGI (OVCAR-5 ovarian)	GI50 (MDA-MB-435)	TGI (MDA-MB-435)	GI50 (HCT-15 colon)	TGI (HCT-15 colon)	GI50 (UO-31 renal)	TGI (UO-31 renal)	GI50 (HCT-116 colon)	TGI (HCT-116 colon)	GI50 (SNB-75 CNS)	TGI (SNB-75 CNS)	GI50 (MALME-3M melanoma)	TGI (MALME-3M melanoma)
O=C(Nc1cc(Oc2cc(F)c(NC(=O)C3(C(=O)Nc4ccc(F)cc4)CC3)cc2F)ccn1)C1CC1	3.77 µM	> 100 µM	3.12 µM	> 100 µM	4.04 µM	> 29.9 µM	3.12 µM	> 100 µM	1.53 µM	4.26 µM	3 µM	> 54.2 µM	2.68 µM	7.23 µM	2.27 µM	> 100 µM	1.49 µM	3.16 µM	0.324 µM	2.47 µM
CC1=C[C@H]2C[C@H](C)[C@H]3CC[C@H](C)[C@]4(C1)C(=O)C(O)=C(C)C(=O)[C@@]324	24.9 µM	66.1 µM	31.5 µM	> 100 µM	45.1 µM	> 100 µM	20.4 µM	55.4 µM	41.1 µM	> 100 µM	32.7 µM	> 100 µM	29.8 µM	> 100 µM	19.5 µM	41.8 µM	46.7 µM	> 100 µM	23.3 µM	80.7 µM
O=S(=O)(Nc1ccc(F)c(Cl)c1)c1ccc(-c2cnc(C3CC3)o2)cc1	0.179 µM	11.7 µM	0.159 µM	13.9 µM	0.728 µM	14.4 µM	0.798 µM	13.4 µM	0.0313 µM	0.187 µM	0.113 µM	11.2 µM	0.584 µM	6.37 µM	0.334 µM	10.4 µM	0.137 µM	0.547 µM	0.589 µM	16.1 µM
Cc1ccc(NCCN(C)C)c2c(=O)c3ccccc3sc12	2.08 µM	7.56 µM	1.46 µM	3.02 µM	1.73 µM	3.92 µM	1.76 µM	3.38 µM	1.71 µM	3.47 µM	2.21 µM	6.53 µM	1.28 µM	2.85 µM	1.47 µM	2.8 µM	1.49 µM	3.08 µM	1.66 µM	3.28 µM
C#COc1cccc(Nc2ncnc3cc(NC(=O)[C@H](C)Cl)ccc23)c1	2.95 µM	> 62.5 µM	2.58 µM	> 62.5 µM	13 µM	> 62.5 µM	3.84 µM	> 62.5 µM	1.4 µM	4.3 µM	2.5 µM	> 62.5 µM	7.94 µM	> 62.5 µM	2.23 µM	> 62.5 µM	2.6 µM	> 62.5 µM	4.07 µM	> 62.5 µM
CCOC(=O)c1ccc2c(c1)[n+](=O)c(C(C)=O)c(C(F)(F)F)n2[O-]	1.39 µM	2.94 µM	1.52 µM	3.26 µM	1.64 µM	3.34 µM	1.56 µM	3.22 µM	1.61 µM	3.21 µM	1.4 µM	3.22 µM	1.49 µM	3.15 µM	1.39 µM	3.34 µM	1.55 µM	3 µM	1.4 µM	2.83 µM
Cc1cn(-c2ccc(S(C)(=O)=O)cc2)c(-c2ccc(Cl)cc2)n1	> 100 µM	> 100 µM	> 100 µM	> 100 µM	> 100 µM	> 100 µM	> 100 µM	> 100 µM	> 100 µM	> 100 µM	> 100 µM	> 100 µM	> 100 µM	> 100 µM	> 100 µM	> 100 µM	> 100 µM	> 100 µM	> 100 µM	> 100 µM
COc1cccc(C2C3=C(COC3=O)N(CCO)c3cc4c(cc32)OCO4)c1 (centres undefined)	0.449 µM	> 50 µM	0.229 µM	> 50 µM	0.289 µM	> 13.8 µM	2.03 µM	> 50 µM	0.101 µM	0.356 µM	1.02 µM	> 50 µM	0.297 µM	> 50 µM	0.235 µM	> 16.1 µM	0.151 µM	1.07 µM		> 50 µM
C[C@@H]1COCCN1c1cc(C2([S@@](C)(=N)=O)CC2)nc(-c2ccnc3[nH]ccc23)n1	11.7 µM	> 79.2 µM	8 µM	> 100 µM	2.95 µM	27.4 µM	5.11 µM	> 100 µM	5.27 µM	> 100 µM	10 µM	> 100 µM	4 µM	50 µM	7.38 µM	> 100 µM	2.3 µM	28.6 µM	7.32 µM	54.6 µM
O=C(/C=C/C12c3ccccc3C(c3ccccc31)C1C(=O)NC(=O)C12)c1ccc(Cl)cc1 (centres undefined)	1.24 µM	2.52 µM	1.89 µM	4.26 µM	1.85 µM	3.87 µM	1.58 µM	3.35 µM	1.68 µM	3.5 µM	1.47 µM	4.07 µM	1.28 µM	2.56 µM	1.23 µM	2.61 µM	1.1 µM	2.32 µM	1.51 µM	2.88 µM
